The nature of data set [1]: Antiproliferative activity against mouse P388 cells assessed as reduction in cell viability measured after 72 hrs. The conditions noted are these: time 72 hrs. The format is functional, cell-based.
The test system of the next data set is P388/ADR. Nature of the data set: Antiproliferative activity against mouse P388/ADR cells assessed as reduction in cell viability measured after 72 hrs. It is filed as functional, cell-based. The conditions noted are these: time 72 hrs.
The nature of data set [2]: Antiproliferative activity against human MRC5 cells assessed as reduction in cell viability. The format is toxicity, cell-based.
Another data set concerns HCT-116. The experiment in a line: Antiproliferative activity against human HCT-116 cells assessed as reduction in cell viability. The conditions noted are these: Homo sapiens, HCT-116. It is filed as functional, cell-based.
Data set [3] relates to MDA-MB-231. Nature of the data set: Antiproliferative activity against human MDA-MB-231 cells assessed as reduction in cell viability. The format is functional, cell-based.
The subject of a further data set is HT-29. Nature of the data set: Antiproliferative activity against human HT-29 cells assessed as reduction in cell viability. The format is functional, cell-based.
For another data set, the system named is A549. The experiment in a line: Antiproliferative activity against human A549 cells. The format is functional, cell-based.
For another data set, the system named is K562. Nature of the data set: Antiproliferative activity against human K562 cells. It is filed as functional, cell-based.
A further data set relates to PC-3. Nature of the data set: Antiproliferative activity against human PC-3 cells. The format is functional, cell-based.
The next data set deals with A-431. Nature of the data set: Antiproliferative activity against human A-431 cells. The format is functional, cell-based.
Data set [4] has as its system MDA-MB-231. Nature of the data set: Antiproliferative activity against human MDA-MB-231 cells. Conditions: Homo sapiens, MDA-MB-231. It is filed as functional, cell-based.
For another data set, the system named is COLO 205. The experiment in a line: Antiproliferative activity against human COLO 205 cells. The format is functional, cell-based.
Another data set relates to HEK293. The experiment in a line: Antiproliferative activity against human HEK293 cells. It is filed as functional, cell-based.
Data set [5] is described as follows: Antiproliferative activity against human U-87 MG cells. It is filed as functional, cell-based, U-87MG ATCC.
A further data set has as its system NCI-H460. Nature of the data set: Antiproliferative activity against human NCI-H460 cells. The format is functional, cell-based.

SMILES strings stand for the structures.

The GI50 is the concentration that inhibits growth by half. In general, IC50 refers to the point on the concentration scale where inhibition reaches its midpoint.

In the case of `C[C@H]1[C@@H](Oc2ccc(C(=O)N3CCN(c4ccccc4)CC3)cc2)O[C@@H]2O[C@@]3(C)CC[C@H]4[C@H](C)CC[C@@H]1[C@@]24OO3`, the GI50 (in [1]; in the data set on P388/ADR) was 22.1 nM in each case.

On to `Cc1c(C)c2cccc(OCc3cn(CCO[C@@H]4O[C@@H]5O[C@@]6(C)CC[C@H]7[C@H](C)CC[C@@H]([C@H]4C)[C@@]57OO6)nn3)c2oc1=O`, for which the IC50 (in data set [2]; in the data set on HCT-116; in the data set with MDA-MB-231 [3]; in the data set with HT-29) was 430 nM each time.

Take `C[C@H]1[C@@H](OCCn2cc(COc3ccc(C=O)c(O)c3)nn2)O[C@@H]2O[C@@]3(C)CC[C@H]4[C@H](C)CC[C@@H]1[C@@]24OO3`: the half-inhibitory concentration (IC50) with A549, in the data set on K562, with PC-3, in the data set on A-431, in the data set on MDA-MB-231 [4] and in the data set on COLO 205 was 18000 nM in each case. Moreover, in the data set with HEK293, it took 18000 nM to reach half-maximal inhibition (IC50).

With `C[C@H]1[C@@H](Oc2ccc(C(=O)N3CCN(Cc4ccccc4)CC3)cc2)O[C@@H]2O[C@@]3(C)CC[C@H]4[C@H](C)CC[C@@H]1[C@@]24OO3`, the GI50 (in [1]; in the data set on P388/ADR) was 22.1 nM each time.

As for `Cc1cc(=O)oc2c(OCc3cn(CCCO[C@@H]4O[C@@H]5O[C@@]6(C)CC[C@H]7[C@H](C)CC[C@@H]([C@H]4C)[C@@]57OO6)nn3)cccc12`, the IC50 (in data set [2]; with HCT-116; with MDA-MB-231 [3]; in the data set with HT-29) was 430 nM in each case.

As for `Cc1ccccc1NS(=O)(=O)/C=C/c1cccc(OCCO[C@@H]2O[C@@H]3O[C@@]4(C)CC[C@H]5[C@H](C)CC[C@@H]([C@H]2C)[C@@]35OO4)c1`, the IC50 (with HT-29; in the data set on A549; in the data set with MDA-MB-231 [4]; in data set [5]; in the data set on NCI-H460) was 50 nM in each case.

On to `C[C@H]1[C@H](OCCOc2cccc(/C=C/S(=O)(=O)Nc3ccc(OC(F)(F)F)cc3)c2)O[C@@H]2O[C@@]3(C)CC[C@H]4[C@H](C)CC[C@@H]1[C@@]24OO3`, for which the IC50 (in the data set on HT-29; in the data set with A549; in the data set with MDA-MB-231 [4]; in data set [5]; in the data set on NCI-H460) was 50 nM each time.

Take `Cc1c(Cl)c(=O)oc2c(OCc3cn(CCCO[C@@H]4O[C@@H]5O[C@@]6(C)CC[C@H]7[C@H](C)CC[C@@H]([C@H]4C)[C@@]57OO6)nn3)cccc12`: the IC50 (in data set [2]; with HCT-116; in the data set with MDA-MB-231 [3]; in the data set on HT-29) was 430 nM each time.

Consider `C[C@H]1[C@H](OCCOc2cccc(/C=C/S(=O)(=O)Nc3ccccc3)c2)O[C@@H]2O[C@@]3(C)CC[C@H]4[C@H](C)CC[C@@H]1[C@@]24OO3`, for which the IC50 (in the data set on HT-29; with A549; in the data set with MDA-MB-231 [4]; in [5]; with NCI-H460) was 50 nM each time.

In the case of `C[C@H]1[C@H](OCCn2cc(COc3cccc4c(C(F)(F)F)cc(=O)oc34)nn2)O[C@@H]2O[C@@]3(C)CC[C@H]4[C@H](C)CC[C@@H]1[C@@]24OO3`, the half-inhibitory concentration (IC50) (in data set [2]; with HCT-116; with MDA-MB-231 [3]; in the data set with HT-29) was 430 nM each time.

Consider `C[C@H]1[C@H](OCCCn2cc(COc3cccc4c(C(F)(F)F)cc(=O)oc34)nn2)O[C@@H]2O[C@@]3(C)CC[C@H]4[C@H](C)CC[C@@H]1[C@@]24OO3`, for which the IC50 (in data set [2]; in the data set on HCT-116; in the data set on MDA-MB-231 [3]; in the data set with HT-29) was 430 nM throughout.

Regarding `CCOC(=O)c1cc2cccc(OCc3cn(CCO[C@@H]4O[C@@H]5O[C@@]6(C)CC[C@H]7[C@H](C)CC[C@@H]([C@H]4C)[C@@]57OO6)nn3)c2oc1=O`, the IC50 (in data set [2]; in the data set with HCT-116; with MDA-MB-231 [3]; in the data set with HT-29) was 430 nM in each case.

In the case of `C[C@H]1[C@H](OCCOc2cccc(/C=C/S(=O)(=O)Nc3c(Cl)cccc3Cl)c2)O[C@@H]2O[C@@]3(C)CC[C@H]4[C@H](C)CC[C@@H]1[C@@]24OO3`, the IC50 (with HT-29; in the data set on A549; with MDA-MB-231 [4]; in data set [5]; in the data set on NCI-H460) was 50 nM each time.

In the case of `C[C@H]1[C@H](OCCOc2cccc(/C=C/S(=O)(=O)Nc3ccccc3Cl)c2)O[C@@H]2O[C@@]3(C)CC[C@H]4[C@H](C)CC[C@@H]1[C@@]24OO3`, the IC50 (with HT-29; in the data set on A549; in the data set with MDA-MB-231 [4]; in data set [5]; in the data set on NCI-H460) was 50 nM each time.

In the case of `Cc1ccc(F)c(NS(=O)(=O)/C=C/c2ccc(OCc3ccc(C(=O)NCCO[C@@H]4O[C@@H]5O[C@@]6(C)CC[C@H]7[C@H](C)CC[C@@H]([C@H]4C)[C@@]57OO6)cc3)cc2)c1`, the IC50 (in the data set on HT-29; in the data set on A549; with MDA-MB-231 [4]; in data set [5]; in the data set on NCI-H460) was 90 nM throughout.

As to `C[C@H]1[C@@H](OCc2cn(-c3ccc(C#N)cc3)nn2)O[C@@H]2O[C@]3(C)OO[C@]24[C@H]1CC[C@@H](C)[C@@H]4C[C@H]3O`, the IC50 with A549, in the data set on K562, in the data set on PC-3, in the data set with A-431, in the data set with MDA-MB-231 [4] and in the data set with COLO 205 was 25300 nM in each case. In the data set with HEK293, this compound showed an IC50 of 25300 nM.

With `C[C@H]1[C@@H](OCCn2cc(COc3cccc(O)c3)nn2)O[C@@H]2O[C@@]3(C)CC[C@H]4[C@H](C)CC[C@@H]1[C@@]24OO3`, the IC50 in the data set on A549, in the data set on K562, with PC-3, in the data set with A-431, in the data set on MDA-MB-231 [4] and with COLO 205 was 18000 nM each time. In addition, in the data set with HEK293, the concentration for half-maximal inhibition (IC50) was 18000 nM.

Consider `C[C@H]1[C@H](OCCOc2cccc(/C=C/S(=O)(=O)Nc3cccc(Cl)c3)c2)O[C@@H]2O[C@@]3(C)CC[C@H]4[C@H](C)CC[C@@H]1[C@@]24OO3`, for which the IC50 (in the data set on HT-29; in the data set on A549; with MDA-MB-231 [4]; in [5]; in the data set on NCI-H460) was 50 nM throughout.

`Cc1c(Cl)c(=O)oc2c(OCc3cn(CCO[C@@H]4O[C@@H]5O[C@@]6(C)CC[C@H]7[C@H](C)CC[C@@H]([C@H]4C)[C@@]57OO6)nn3)cccc12`: the IC50 (in data set [2]; with HCT-116; with MDA-MB-231 [3]; with HT-29) was 430 nM in each case.

On to `Cc1c(C)c2cccc(OCc3cn(CCCO[C@@H]4O[C@@H]5O[C@@]6(C)CC[C@H]7[C@H](C)CC[C@@H]([C@H]4C)[C@@]57OO6)nn3)c2oc1=O`, for which the IC50 (in data set [2]; with HCT-116; in the data set with MDA-MB-231 [3]; in the data set with HT-29) was 430 nM in each case.

As to `C[C@H]1[C@@H](Oc2ccc(C(=O)N3CCN(C/C=C/c4ccccc4)CC3)cc2)O[C@@H]2O[C@@]3(C)CC[C@H]4[C@H](C)CC[C@@H]1[C@@]24OO3`, the GI50 (in [1]; in the data set with P388/ADR) was 22.1 nM throughout.

On to `C[C@H]1[C@H](OCCNC(=O)c2ccc(COc3ccc(/C=C/S(=O)(=O)Nc4ccc(Cl)cc4)cc3)cc2)O[C@@H]2O[C@@]3(C)CC[C@H]4[C@H](C)CC[C@@H]1[C@@]24OO3`, for which the IC50 (in the data set on HT-29; with MDA-MB-231 [4]; in data set [5]; in the data set with NCI-H460) was 90 nM in each case.

Regarding `Cc1ccc(F)c(NS(=O)(=O)/C=C/c2cccc(OCCOC3O[C@@H]4O[C@@]5(C)CC[C@H]6[C@H](C)CC[C@@H]([C@H]3C)[C@@]46OO5)c2)c1` (stereo not given in full), the IC50 (in the data set on HT-29; in the data set on A549; with MDA-MB-231 [4]; in data set [5]; in the data set with NCI-H460) was 50 nM in each case.

Turning to `Cc1cc(=O)oc2c(OCc3cn(CCO[C@@H]4O[C@@H]5O[C@@]6(C)CC[C@H]7[C@H](C)CC[C@@H]([C@H]4C)[C@@]57OO6)nn3)cccc12`, the half-maximal inhibitory concentration (IC50) (in data set [2]; in the data set on HCT-116; in the data set with MDA-MB-231 [3]; in the data set on HT-29) was 430 nM throughout.

On to `CCOC(=O)c1cc2cccc(OCc3cn(CCCO[C@@H]4O[C@@H]5O[C@@]6(C)CC[C@H]7[C@H](C)CC[C@@H]([C@H]4C)[C@@]57OO6)nn3)c2oc1=O`, for which the IC50 (in data set [2]; with HCT-116; in the data set with MDA-MB-231 [3]; with HT-29) was 430 nM throughout.

For the compound `C[C@H]1[C@H](OCCNC(=O)c2ccc(COc3ccc(/C=C/S(=O)(=O)Nc4cccc(Cl)c4)cc3)cc2)O[C@@H]2O[C@@]3(C)CC[C@H]4[C@H](C)CC[C@@H]1[C@@]24OO3`, the IC50 in the data set on HT-29, in the data set with A549, in the data set with MDA-MB-231 [4] and with NCI-H460 was 90 nM in each case.

`C[C@@H]1CC[C@H]2[C@@H](C)C(OCCOc3cccc(/C=C/S(=O)(=O)Nc4ccc(Cl)cc4)c3)O[C@@H]3O[C@@]4(C)CC[C@@H]1[C@]32OO4` (single isomer, unassigned): the IC50 (in the data set on HT-29; in the data set on A549; in the data set on MDA-MB-231 [4]; in [5]; with NCI-H460) was 50 nM each time.

(Values after ChEMBL document CHEMBL5244230, “Artemisinin-derived hybrids and their anticancer activity” (Eur J Med Chem, 2020).)
